Laboratory results: patent publication US9061060B2, “Deuterated benzylbenzene derivatives and methods of use” (Theracos Inc., priority 2008, dated 2015)

Legend:
[1] = Metabolism in SD rats: distribution of metabolites in urine; assay type: in vivo; conditions: male SD rats, 50 mg/kg oral, five consecutive days, HPLC
Protocol: Each test compound was dissolved in 30% PEG400 and administered orally to male SD rats by gavages at the dose level of 50 mg/kg (when using co-crystals, the weight calculation was based on free drug) for five consecutive days. Control rats were given 30% PEG400 only. All rats were housed in metabolic cages individually. Food and water were supplied ad libitum. Clinical observations (with attention to diarrhea symptoms) were performed twice daily. Food and water consumption were determined daily. Urine was collected pre-determined intervals: pre-dose, 0-4 hours, 4-8 hours, and 8-24 hours post-dose. Metabolites were analyzed and identified by LC/MS. The structures of the metabolites were confirmed by re-synthesis or isolation from the urine by preparative HPLC and NMR analysis. On day 6, all animals were sacrificed and gross necropsy was performed. The urine from two rats for each test compound was collected and pooled. The samples were diluted (1 mL urine in 4 mL of methanol) and analyzed by LC-MS: Waters 2695 Separations Module equipped with a Waters 2996 Photodiode Array Detector and a Waters Micromass ZQ Detector; Waters XTerra C18 3.5 μm, 20 mm×2.1 mm column, 1.0 mL/min, detection at 190-400 nm; 1.7 min gradient 10-50% A, followed by 1.8 min gradient 50-95% A, hold 1 min at 95% A; solvent A: 100% acetonitrile+0.045% formic acid; solvent B: Milli-Q water+0.1% formic acid. The urine samples were analyzed from 0-4 hours, 4-8 hours, 8-24 hours and 0-24 hours after administration. The ratio of metabolites was highly consistent within each time for each rat. The metabolites were identified by mass then re-synthesized to confirm their identity and the relative distribution was assayed using HPLC. […] See also FIGS. 1, 2A-2C, 3A-3D, and 4A-4C.

CYP1A2 = molecular target: T1, CYP1A2 (Homo sapiens, UniProt P05177); experiment: P450-Glo CYP screening kit, CYP1A2 inhibition; assay type: in vitro ADME; conditions: luminescence, read-out: IC50 1A2
T1 construct: purchased Promega
T1 sequence (P05177 1-516): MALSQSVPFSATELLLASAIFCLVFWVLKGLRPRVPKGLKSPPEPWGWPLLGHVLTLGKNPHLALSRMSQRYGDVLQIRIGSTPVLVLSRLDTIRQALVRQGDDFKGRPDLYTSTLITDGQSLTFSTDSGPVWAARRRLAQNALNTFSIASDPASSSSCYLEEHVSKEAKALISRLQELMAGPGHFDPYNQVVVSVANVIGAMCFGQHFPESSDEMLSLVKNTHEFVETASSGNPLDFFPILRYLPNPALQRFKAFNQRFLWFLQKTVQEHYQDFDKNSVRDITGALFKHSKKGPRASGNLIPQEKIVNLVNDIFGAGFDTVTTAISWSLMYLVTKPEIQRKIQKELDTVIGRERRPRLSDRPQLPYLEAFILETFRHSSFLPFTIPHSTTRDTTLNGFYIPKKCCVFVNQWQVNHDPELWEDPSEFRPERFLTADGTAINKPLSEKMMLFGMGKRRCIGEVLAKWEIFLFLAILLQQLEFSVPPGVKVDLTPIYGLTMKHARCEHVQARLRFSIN
Source text: (§1) P450-Glo™ CYP Screening Kits for CYP1A2, CYP3A4 and CYP2C19 were purchased from Promega. […] Luminescence was quantified using a Victor 3 spectrophotometer (PerkinElmer).

CYP3A4 = molecular target: T2, CYP3A4 (Homo sapiens, UniProt P08684); experiment: P450-Glo CYP screening kit, CYP3A4 inhibition; assay type: in vitro ADME; conditions: luminescence, read-out: IC50 3A4
T2 construct: purchased Promega
T2 sequence (P08684 whole entry): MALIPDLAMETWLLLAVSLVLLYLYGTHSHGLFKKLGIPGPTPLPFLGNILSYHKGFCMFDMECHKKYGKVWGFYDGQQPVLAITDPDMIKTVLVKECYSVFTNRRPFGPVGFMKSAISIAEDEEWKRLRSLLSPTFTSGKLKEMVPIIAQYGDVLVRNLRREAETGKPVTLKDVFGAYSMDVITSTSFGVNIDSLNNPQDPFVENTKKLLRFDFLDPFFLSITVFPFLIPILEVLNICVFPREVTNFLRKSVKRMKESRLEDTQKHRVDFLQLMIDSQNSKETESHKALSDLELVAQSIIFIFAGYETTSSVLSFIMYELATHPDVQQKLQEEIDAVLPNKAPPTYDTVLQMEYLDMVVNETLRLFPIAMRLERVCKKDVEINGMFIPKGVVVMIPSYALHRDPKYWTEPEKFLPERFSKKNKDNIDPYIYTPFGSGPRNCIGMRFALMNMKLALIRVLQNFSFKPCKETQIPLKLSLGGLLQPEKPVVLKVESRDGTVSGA
Source text: as §1

SD rats = experiment: Urinary glucose excretion in SD rats; assay type: in vivo; conditions: 1 mg/kg oral
Protocol: Each test compound was dissolved in 30% PEG400 and administered orally to overnight-fasted SD rats by gavage at the dose level of 1 mg/kg. Control rats were given 30% PEG400 only. One hour post dosing, glucose solution (2 g/kg, 10 mL/kg) was administered by oral gavage. Urine was collected within metabolic cages from 0 to 4 hours, and 4 to 24 hours post-dosing for urine volume and glucose measurement. Food was removed 16 hours before dosing and then provided 4 hours after dosing. Water was supplied ad libitum. The concentration of urinary glucose was determined at 4 hours and 24 hours post-dose using a biochemistry analyzer. Results were recorded for the periods 0-4 hours, 4-24 hours and 0-24 hours, and expressed as a percentage of the urinary glucose excretion (UGE) seen with reference compound A, which was run as a positive control in all experiments.

| SMILES | Distribution of Metabolites in Urine (% of total), Peak 1 (Parent) [1] [%] | IC50 (CYP1A2) [µM] | IC50 (CYP3A4) [µM] | Urinary Glucose Excretion in Rats, 0-4 h, % relative to Ref A (SD rats; 0-4 h) [%] | Urinary Glucose Excretion in Rats, 0-24 h, % relative to Ref A (SD rats) [%] | Urinary Glucose Excretion in Rats, 4-24 h, % relative to Ref A (SD rats; 4-24 h) [%] | Urinary Glucose Excretion in Rats, 0-4 h (mean ± SD) (SD rats; glucose 2 g/kg 1 h post dose, 0-4 h) [mg] | Urinary Glucose Excretion in Rats, 0-24 h (mean ± SD) (SD rats; glucose 2 g/kg 1 h post dose) [mg] | Urinary Glucose Excretion in Rats, 4-24 h (mean ± SD) (SD rats; glucose 2 g/kg 1 h post dose, 4-24 h) [mg] |
| --- | --- | --- | --- | --- | --- | --- | --- | --- | --- |
| COc1ccc(Cc2cc([C@@H]3O[C@H](CO)[C@@H](O)[C@H](O)[C@H]3O)ccc2Cl)cc1 [Ref B, (2S,3R,4R,5S,6R)-2-(4-chloro-3-(4-methoxybenzyl)phenyl)-6-(hydroxymethyl)tetrahydro-2H-pyran-3,4,5-triol, reference compound] | 72 | > 1000 | 250 | 122 | 78 | 74 | 233 ± 35 | 1889 ± 361 | 1657 ± 354 |
| [2H]C([2H])([2H])Oc1ccc(C([2H])([2H])c2cc([C@@H]3O[C@H](CO)[C@@H](O)[C@H](O)[C@H]3O)ccc2Cl)cc1 [compound 19, (2S,3R,4R,5S,6R)-2-(4-chloro-3-((4-(methoxy-d3)phenyl)methyl-d2)phenyl)-6-(hydroxymethyl)tetrahydro-2H-pyran-3,4,5-triol] | 87 | > 1000 | > 1000 | – | 83 | – | – | 2096 ± 332 | – |
